Series [1] has as its target Sodium-dependent serotonin transporter (Rattus norvegicus, UniProt P31652). Kind of series: biochemical.
Series [2] has as its target T1, 5-hydroxytryptamine receptor 1A (Homo sapiens, UniProt P08908).
T1 sequence (P08908 whole entry): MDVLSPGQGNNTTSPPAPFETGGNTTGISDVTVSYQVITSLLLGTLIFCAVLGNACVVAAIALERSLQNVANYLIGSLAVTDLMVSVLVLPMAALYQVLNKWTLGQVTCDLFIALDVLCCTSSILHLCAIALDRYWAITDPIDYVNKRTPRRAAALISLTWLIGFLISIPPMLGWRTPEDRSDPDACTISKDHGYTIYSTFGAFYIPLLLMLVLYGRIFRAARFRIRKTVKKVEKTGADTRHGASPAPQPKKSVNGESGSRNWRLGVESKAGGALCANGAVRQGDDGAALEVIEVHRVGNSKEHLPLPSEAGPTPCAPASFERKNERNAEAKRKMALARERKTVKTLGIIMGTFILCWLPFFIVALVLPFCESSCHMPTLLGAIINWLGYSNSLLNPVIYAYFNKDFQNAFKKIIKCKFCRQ

The test system of series [3] is Mus musculus. Kind of series: Antipsychotic activity in Swiss albino mouse assessed as inhibition of apomorphine-induced climbing behavior at 1.25 mg/kg, ip administered 10 mins before apomorphine-challenge measured after 2 mins. Conditions: route intraperitoneal. Type of series: functional.
Series [4] addresses T2, 5-hydroxytryptamine receptor 7 (Homo sapiens, UniProt P34969).
In series [5] the test system is Mus musculus. Briefly: Antipsychotic activity in CD1 mouse assessed as inhibition MK-801-evoked hyperactivity at 2.5 to 20 mg/kg, ip after 30 mins. Format: functional, organism-based.
In series [6] the target is D(3) dopamine receptor (Homo sapiens) (UniProt P35462). Kind of series: Displacement of [3H]-methylspiperone from human dopamine D3 receptor expressed in HEK293 at 10^-7 M after 1 hr. Type of series: cell-based. (In general: Loss of bound radioactivity is the signal in a displacement assay; it reports binding, not function.)
Sequence of D(3) dopamine receptor (Homo sapiens) (P35462 whole entry): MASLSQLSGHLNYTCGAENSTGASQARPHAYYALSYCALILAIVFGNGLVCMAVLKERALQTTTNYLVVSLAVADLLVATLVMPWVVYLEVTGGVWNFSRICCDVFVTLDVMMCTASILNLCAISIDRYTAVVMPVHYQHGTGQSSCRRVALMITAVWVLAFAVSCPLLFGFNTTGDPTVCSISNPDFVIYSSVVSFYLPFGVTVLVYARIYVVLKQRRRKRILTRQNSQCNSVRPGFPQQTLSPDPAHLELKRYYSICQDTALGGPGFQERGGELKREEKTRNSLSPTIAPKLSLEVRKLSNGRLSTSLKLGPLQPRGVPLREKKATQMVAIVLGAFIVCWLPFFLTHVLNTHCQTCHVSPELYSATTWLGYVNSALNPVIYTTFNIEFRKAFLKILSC
The test system of series [7] is Mus musculus. Kind of series: Antidepressant activity in Swiss albino mouse assessed as reduction of immobility time at 5 mg/kg, ip measured during last 4 mins of a 6 mins test session by forced swim test. Type of series: functional. More on the design: scale not given: the % may be the effect or the level left. The following applies: route intraperitoneal.
Series [8] is filed under the species Mus musculus. Kind of series: animal or person. The following applies: Swiss albino, ip, read-out: ID50.
Description: Antipsychotic activity in ip dosed Swiss albino mouse assessed as inhibition of apomorphine-induced climbing behavior administered 10 mins before apomorphine-challenge measured after 2 mins
Series [9] addresses D(2) dopamine receptor (Homo sapiens, UniProt P14416). Kind of series: biochemical. Format: cell-based, HEK293.
Description: Displacement of [3H]-raclopride from human dopamine D2L receptor expressed in HEK293 after 1 hr
The target in series [10] is D(3) dopamine receptor (Homo sapiens) (UniProt P35462). Briefly: Displacement of [3H]-methylspiperone from human dopamine D3 receptor expressed in HEK293 at 10^-6 M after 1 hr. Format: cell-based.
Series [11] addresses T2, 5-hydroxytryptamine receptor 7. This is another data set of the same source.
For series [12], the target named is T1, 5-hydroxytryptamine receptor 1A. This is another data set of the same source.
Description: Agonist activity at human 5HT1A receptor expressed in CHO cells assessed as cAMP accumulation
The target in series [13] is T3, Adrenergic receptor alpha-1 (Rattus norvegicus, UniProt P15823+P23944+P43140).
T3 sequence (P15823 whole entry): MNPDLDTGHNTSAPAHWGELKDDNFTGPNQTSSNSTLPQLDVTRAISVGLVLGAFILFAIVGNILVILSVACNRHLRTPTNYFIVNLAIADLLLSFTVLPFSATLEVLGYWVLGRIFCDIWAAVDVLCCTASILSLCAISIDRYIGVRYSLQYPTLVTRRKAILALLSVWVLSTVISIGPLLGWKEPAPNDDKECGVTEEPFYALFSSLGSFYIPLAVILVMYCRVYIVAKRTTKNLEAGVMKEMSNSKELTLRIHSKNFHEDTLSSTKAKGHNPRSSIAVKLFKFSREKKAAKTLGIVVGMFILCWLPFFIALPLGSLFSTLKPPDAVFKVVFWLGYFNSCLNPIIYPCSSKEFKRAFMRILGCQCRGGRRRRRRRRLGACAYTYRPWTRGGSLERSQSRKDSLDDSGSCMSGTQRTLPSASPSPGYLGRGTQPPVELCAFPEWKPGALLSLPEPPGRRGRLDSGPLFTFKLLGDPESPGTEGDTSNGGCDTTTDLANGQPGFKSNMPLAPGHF
T3 sequence (P23944 whole entry): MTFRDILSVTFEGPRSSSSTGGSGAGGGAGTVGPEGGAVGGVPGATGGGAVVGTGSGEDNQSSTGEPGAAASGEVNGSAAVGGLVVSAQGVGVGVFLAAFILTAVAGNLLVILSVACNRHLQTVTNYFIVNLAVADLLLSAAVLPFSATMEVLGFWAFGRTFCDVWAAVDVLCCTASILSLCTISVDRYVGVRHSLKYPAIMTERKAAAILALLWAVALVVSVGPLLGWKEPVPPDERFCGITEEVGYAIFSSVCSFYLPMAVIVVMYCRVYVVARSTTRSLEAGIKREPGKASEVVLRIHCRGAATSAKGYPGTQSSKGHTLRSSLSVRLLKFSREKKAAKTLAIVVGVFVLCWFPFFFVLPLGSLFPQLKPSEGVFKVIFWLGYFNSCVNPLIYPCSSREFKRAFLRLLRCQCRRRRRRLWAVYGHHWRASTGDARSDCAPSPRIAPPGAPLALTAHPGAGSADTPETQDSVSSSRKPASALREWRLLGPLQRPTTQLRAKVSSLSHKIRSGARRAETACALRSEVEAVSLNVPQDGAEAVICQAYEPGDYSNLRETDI
T3 sequence (P43140 whole entry): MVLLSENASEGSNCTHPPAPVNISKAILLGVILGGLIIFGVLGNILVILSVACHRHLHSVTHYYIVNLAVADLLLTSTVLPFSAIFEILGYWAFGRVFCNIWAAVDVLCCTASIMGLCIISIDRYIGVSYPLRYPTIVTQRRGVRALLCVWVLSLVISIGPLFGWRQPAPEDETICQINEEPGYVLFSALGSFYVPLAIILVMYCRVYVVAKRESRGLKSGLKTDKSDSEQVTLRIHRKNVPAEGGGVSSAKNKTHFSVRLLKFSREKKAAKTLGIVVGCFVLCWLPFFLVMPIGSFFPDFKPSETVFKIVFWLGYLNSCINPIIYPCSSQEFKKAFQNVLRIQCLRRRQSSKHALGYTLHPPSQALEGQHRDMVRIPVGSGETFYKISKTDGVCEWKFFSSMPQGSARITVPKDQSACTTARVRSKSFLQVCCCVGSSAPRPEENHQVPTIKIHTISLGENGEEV
Description: Displacement of [3H]-Prazosin from adrenergic alpha1 receptor in rat cortex after 30 mins by scintillation counting

Series [14] deals with Mus musculus. Kind of series: Antidepressant activity in Swiss albino mouse assessed as reduction of immobility time at 10 mg/kg, ip measured during last 4 mins of a 6 mins test session by forced swim test. Type of series: functional. Set-up: scale not given: the % may be the effect or the level left. The following applies: route intraperitoneal.
Series [15] deals with 5-hydroxytryptamine receptor 6 (Homo sapiens, UniProt P50406).
Sequence of 5-hydroxytryptamine receptor 6 (P50406 whole entry): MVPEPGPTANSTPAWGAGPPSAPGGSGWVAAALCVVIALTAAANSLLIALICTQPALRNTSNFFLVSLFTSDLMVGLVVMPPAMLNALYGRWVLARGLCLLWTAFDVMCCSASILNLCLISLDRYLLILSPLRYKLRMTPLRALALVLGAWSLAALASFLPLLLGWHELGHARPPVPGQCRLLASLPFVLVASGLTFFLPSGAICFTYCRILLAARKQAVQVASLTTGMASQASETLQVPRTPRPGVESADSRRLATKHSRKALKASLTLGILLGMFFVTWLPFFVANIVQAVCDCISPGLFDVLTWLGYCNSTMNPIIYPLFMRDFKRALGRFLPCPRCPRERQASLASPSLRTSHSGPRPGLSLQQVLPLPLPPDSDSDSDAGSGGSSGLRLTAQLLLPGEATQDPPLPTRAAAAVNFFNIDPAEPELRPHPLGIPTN
Description: Displacement of [3H]-LSD from human 5HT6 receptor expressed in HEK293 after 1 hr
The test system of series [16] is Mus musculus. Kind of series: Antidepressant activity in Swiss albino mouse assessed as reduction of immobility time at 20 mg/kg, ip measured during last 4 mins of a 6 mins test session by forced swim test. Format: functional. More on the design: scale not given: the % may be the effect or the level left. Conditions: route intraperitoneal.
The test system of series [17] is Mus musculus. Briefly: Toxicity in Swiss albino mouse assessed as locomotor activity at 5 to 20 mg/kg, ip measured after 2 to 6 mins. Format: organism-based. Conditions: in vivo. Set-up: route intraperitoneal.
The species entered for series [18] is Mus musculus. Kind of series: animal or person. Conditions: Swiss albino, ip, 20 min, read-out: ID50.
Description: Antipsychotic activity in ip dosed Swiss albino mouse assessed as inhibition of (+/-)DOI-induced head twitch response after 20 mins
The target in series [19] is 5-hydroxytryptamine receptor 2A (Homo sapiens, UniProt P28223). Briefly: biochemical.
Sequence of 5-hydroxytryptamine receptor 2A (P28223 whole entry): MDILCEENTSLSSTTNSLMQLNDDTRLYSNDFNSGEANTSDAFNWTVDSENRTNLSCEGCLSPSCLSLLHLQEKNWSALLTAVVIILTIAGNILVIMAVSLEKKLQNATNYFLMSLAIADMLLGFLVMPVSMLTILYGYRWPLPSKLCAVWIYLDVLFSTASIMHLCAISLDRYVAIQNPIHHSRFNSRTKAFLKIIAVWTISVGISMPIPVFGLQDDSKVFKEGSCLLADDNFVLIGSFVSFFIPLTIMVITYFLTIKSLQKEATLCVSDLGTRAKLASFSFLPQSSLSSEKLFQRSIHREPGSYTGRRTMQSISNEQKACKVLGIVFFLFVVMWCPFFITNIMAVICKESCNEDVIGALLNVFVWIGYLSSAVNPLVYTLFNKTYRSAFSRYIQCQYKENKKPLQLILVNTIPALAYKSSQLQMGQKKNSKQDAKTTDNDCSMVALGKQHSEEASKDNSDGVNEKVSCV
Description: Displacement of [3H]-ketanserin from human 5HT2A receptor expressed in HEK293 after 1.5 hrs

pEC50, pIC50, pKi: −log10 of the molar value. Activity calls are given as the source filed them. The calls are words filed in the database; no cut-off is given here.

T2 sequence (P34969 whole entry): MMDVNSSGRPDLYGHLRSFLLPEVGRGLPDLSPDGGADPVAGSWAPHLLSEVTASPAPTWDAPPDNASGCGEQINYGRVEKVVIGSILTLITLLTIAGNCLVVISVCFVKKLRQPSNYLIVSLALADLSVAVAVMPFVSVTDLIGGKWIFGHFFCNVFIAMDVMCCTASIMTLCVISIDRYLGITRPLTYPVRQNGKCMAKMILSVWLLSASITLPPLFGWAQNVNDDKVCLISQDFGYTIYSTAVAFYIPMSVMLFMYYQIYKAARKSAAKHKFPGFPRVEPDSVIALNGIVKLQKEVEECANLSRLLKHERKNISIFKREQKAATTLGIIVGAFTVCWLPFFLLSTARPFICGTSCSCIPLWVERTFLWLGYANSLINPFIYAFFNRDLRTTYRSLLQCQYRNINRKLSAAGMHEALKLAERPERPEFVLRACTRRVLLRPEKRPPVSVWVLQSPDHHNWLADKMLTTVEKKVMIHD
Sequence of D(2) dopamine receptor (P14416 whole entry): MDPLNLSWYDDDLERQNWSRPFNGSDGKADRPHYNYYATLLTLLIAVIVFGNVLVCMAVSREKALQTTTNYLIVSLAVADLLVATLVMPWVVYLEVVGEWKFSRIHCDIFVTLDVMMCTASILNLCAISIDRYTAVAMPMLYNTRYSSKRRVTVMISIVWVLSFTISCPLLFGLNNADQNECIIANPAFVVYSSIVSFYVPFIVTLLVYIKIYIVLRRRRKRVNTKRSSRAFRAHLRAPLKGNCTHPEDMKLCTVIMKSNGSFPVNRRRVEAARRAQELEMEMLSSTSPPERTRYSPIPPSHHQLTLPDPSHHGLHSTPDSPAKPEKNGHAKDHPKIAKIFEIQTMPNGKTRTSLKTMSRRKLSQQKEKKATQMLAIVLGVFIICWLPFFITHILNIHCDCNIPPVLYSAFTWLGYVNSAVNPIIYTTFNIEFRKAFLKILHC
Sequence of Sodium-dependent serotonin transporter (P31652 whole entry): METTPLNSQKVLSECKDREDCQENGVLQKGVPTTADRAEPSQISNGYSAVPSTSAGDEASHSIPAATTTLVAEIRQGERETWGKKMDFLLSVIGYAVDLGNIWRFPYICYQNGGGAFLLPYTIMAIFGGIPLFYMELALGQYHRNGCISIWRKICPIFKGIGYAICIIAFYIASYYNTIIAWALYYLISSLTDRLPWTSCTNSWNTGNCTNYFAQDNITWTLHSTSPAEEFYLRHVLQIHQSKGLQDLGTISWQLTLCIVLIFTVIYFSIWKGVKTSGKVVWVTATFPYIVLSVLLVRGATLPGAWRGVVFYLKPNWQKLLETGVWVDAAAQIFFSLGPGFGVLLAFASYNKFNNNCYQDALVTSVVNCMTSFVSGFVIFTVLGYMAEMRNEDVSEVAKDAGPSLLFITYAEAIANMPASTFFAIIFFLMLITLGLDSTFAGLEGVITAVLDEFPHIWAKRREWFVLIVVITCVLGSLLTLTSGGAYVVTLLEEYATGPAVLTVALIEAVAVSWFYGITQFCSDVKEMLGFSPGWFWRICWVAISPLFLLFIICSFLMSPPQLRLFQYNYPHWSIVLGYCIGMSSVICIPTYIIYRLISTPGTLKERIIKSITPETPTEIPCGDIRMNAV

For the molecule `O=S(=O)(NCCCCN1CCN(c2cccc(Cl)c2Cl)CC1)c1cc2ccccc2cn1`, the pKi in series [1] was 6.47; in [2], 7.47; in series [4], 7.25; in [9], 7.77; in series [15], 6.34; in series [19], 7.46. In addition, the inhibition in vivo at 1.25 mg/kg in [3] is 49.1%. Also, in series [5], the inhibition entry is “inactive”. The values for the inhibition in series [6] and in [10] were 95% and 98%, respectively. Moreover, the Activity is 43% in series [7], 53% in series [14], 83% in series [16] and “Non-toxic” in series [17]. Further, the ED50 in series [8] is 19.9 mg/kg; in series [18], 9.03 mg/kg. Further, the pIC50 in [11] is 5.25. Moreover, the pEC50 in series [12] was 4.81. This molecule yielded a Ki in [13] of 255 nM.

For orientation: pKi means the negative decadic logarithm of the Ki, by convention in mol/L. Broadly, the inhibition in vivo is how much of the control response was suppressed. One may read the inhibition as the relative decrease from the control value, in per cent. For orientation: pIC50 means the IC50 on a negative log10 scale, so that one unit is a factor of ten. As a reminder, the pEC50 is −log10 of the EC50, conventionally taken in molar units. One may read the Ki as a measure of affinity in units of concentration, obtained from inhibition or displacement.
